PubChem BioAssay AID1963847 (Molecular Pharmacology Branch, DTP, NCI, 2024)

System: 415267-285-R-J2-PDC complex spheroid viability
Assay: Anticancer human tumor 415267-285-R-J2-PDC patient-derived breast carcinoma cell line growth inhibition [POLQ]
Conditions: for IC50: curve of first compound; for viability, T/C: stronger effect = lower value; active = viability on the fitted dose curve at most 10% of control; inactive = the rest
Summary of the method: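 Growth inhibition in 3D: complex spheroids (tumor PDC, HUVEC, MSC) treated with POLQ inhibitor combinations; where Cmax unknown, highest tested concentration 10 microM, except SN-38 at 1 microM.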

[1] = second compound 0.0316 µM, first compound 0.0316 µM
[2] = second compound 0.0316 µM, first compound 0.1 µM
[3] = second compound 0.0316 µM, first compound 0.316 µM
[4] = second compound 0.0316 µM, first compound 1 µM
[5] = second compound 0.1 µM, first compound 0.0316 µM
[6] = second compound 0.1 µM, first compound 0.1 µM
[7] = second compound 0.1 µM, first compound 0.316 µM
[8] = second compound 0.1 µM, first compound 1 µM
[9] = second compound 0.316 µM, first compound 0.0316 µM
[10] = second compound 0.316 µM, first compound 0.1 µM
[11] = second compound 0.316 µM, first compound 0.316 µM
[12] = second compound 0.316 µM, first compound 1 µM
[13] = second compound 1 µM, first compound 0.0316 µM
[14] = second compound 1 µM, first compound 0.1 µM
[15] = second compound 1 µM, first compound 0.316 µM
[16] = second compound 1 µM, first compound 1 µM
[17] = second compound 3.16 µM, first compound 0.0316 µM
[18] = second compound 3.16 µM, first compound 0.1 µM
[19] = second compound 3.16 µM, first compound 0.316 µM
[20] = second compound 3.16 µM, first compound 1 µM
[21] = second compound 10 µM, first compound 0.0316 µM
[22] = second compound 10 µM, first compound 0.1 µM
[23] = second compound 10 µM, first compound 0.316 µM
[24] = second compound 10 µM, first compound 1 µM
[25] = second compound 0.0316 µM, first compound 3.16 µM
[26] = second compound 0.0316 µM, first compound 10 µM
[27] = second compound 0.1 µM, first compound 3.16 µM
[28] = second compound 0.1 µM, first compound 10 µM
[29] = second compound 0.316 µM, first compound 3.16 µM
[30] = second compound 0.316 µM, first compound 10 µM
[31] = second compound 1 µM, first compound 3.16 µM
[32] = second compound 1 µM, first compound 10 µM
[33] = second compound 3.16 µM, first compound 3.16 µM
[34] = second compound 3.16 µM, first compound 10 µM
[35] = second compound 10 µM, first compound 3.16 µM
[36] = second compound 10 µM, first compound 10 µM
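Note: spheroids exposed to compounds for one week before readout.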
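Throughout, for viability, T/C: luminescence used as stand-in measure of viable cells; 100% = DMSO vehicle control viability.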

CCc1c2c(nc3ccc(O)cc13)-c1cc3c(c(=O)n1C2)COC(=O)[C@]3(O)CC + Nc1ccc(C#CCN(C(=O)Cc2ncc(C(F)(F)F)cc2C(F)(F)F)c2ccc(F)cc2)nn1
< 0.00316 µM: IC50 (second compound 1 µM) | IC50 (second compound 3.16 µM) | IC50 (second compound 10 µM)
0.00349 µM: IC50 (second compound 0.316 µM)
inactive: viability, T/C (second compound 0.0316 µM, first compound 0.00316 µM) 56.2% | viability, T/C (second compound 0.0316 µM, first compound 0.01 µM) 12.2% | viability, T/C (second compound 0.1 µM, first compound 0.00316 µM) 63.5% | viability, T/C (second compound 0.1 µM, first compound 0.01 µM) 10.5% | viability, T/C (second compound 0.316 µM, first compound 0.00316 µM) 53.6% | viability, T/C (second compound 0.316 µM, first compound 0.01 µM) 11.3% | viability, T/C (second compound 1 µM, first compound 0.00316 µM) 46.9% | viability, T/C (second compound 3.16 µM, first compound 0.00316 µM) 42.7% | viability, T/C (second compound 3.16 µM, first compound 0.01 µM) 9.28% | viability, T/C (second compound 10 µM, first compound 0.00316 µM) 32.5% | viability, T/C (second compound 10 µM, first compound 0.01 µM) 9.81%
active: viability, T/C [1] 4.64% | viability, T/C [2] 3.13% | viability, T/C [3] 1.82% | viability, T/C [4] 1.11% | viability, T/C [5] 4.81% | viability, T/C [6] 3.2% | viability, T/C [7] 2.14% | viability, T/C [8] 1.01% | viability, T/C [9] 4.02% | viability, T/C [10] 2.64% | viability, T/C [11] 2.39% | viability, T/C [12] 1.12% | viability, T/C (second compound 1 µM, first compound 0.01 µM) 9.28% | viability, T/C [13] 4.2% | viability, T/C [14] 3.14% | viability, T/C [15] 2.27% | viability, T/C [16] 0.96% | viability, T/C [17] 5.9% | viability, T/C [18] 3.54% | viability, T/C [19] 2.55% | viability, T/C [20] 0.98% | viability, T/C [21] 4.81% | viability, T/C [22] 2.88% | viability, T/C [23] 2.6% | viability, T/C [24] 1.04%
0.00423 µM: IC50 (second compound 0.1 µM)
0.00371 µM: IC50 (second compound 0.0316 µM)

C=CC(=O)N1CCN(c2nc(=O)n(-c3c(C)ccnc3C(C)C)c3nc(-c4c(O)cccc4F)c(F)cc23)C(C)C1 (stereo unspecified) + Nc1ccc(C#CCN(C(=O)Cc2ncc(C(F)(F)F)cc2C(F)(F)F)c2ccc(F)cc2)nn1
> 10 µM: IC50 (second compound 0.0316 µM) | IC50 (second compound 0.1 µM) | IC50 (second compound 0.316 µM) | IC50 (second compound 1 µM) | IC50 (second compound 3.16 µM) | IC50 (second compound 10 µM)
inactive: viability, T/C [1] 99.7% | viability, T/C [2] 110% | viability, T/C [3] 121% | viability, T/C [4] 114% | viability, T/C [25] 104% | viability, T/C [26] 99.6% | viability, T/C [5] 98.5% | viability, T/C [6] 103% | viability, T/C [7] 94.7% | viability, T/C [8] 100% | viability, T/C [27] 103% | viability, T/C [28] 105% | viability, T/C [9] 97.5% | viability, T/C [10] 114% | viability, T/C [11] 91.8% | viability, T/C [12] 93% | viability, T/C [29] 98.2% | viability, T/C [30] 92.5% | viability, T/C [13] 111% | viability, T/C [14] 91.7% | viability, T/C [15] 113% | viability, T/C [16] 106% | viability, T/C [31] 96% | viability, T/C [32] 105% | viability, T/C [17] 99.1% | viability, T/C [18] 106% | viability, T/C [19] 107% | viability, T/C [20] 102% | viability, T/C [33] 99.1% | viability, T/C [34] 104% | viability, T/C [21] 94.5% | viability, T/C [22] 112% | viability, T/C [23] 106% | viability, T/C [24] 107% | viability, T/C [35] 104% | viability, T/C [36] 102%

CCc1cc2c(N3CCc4c(cc(Cn5ccnc5)cc4-c4cn(C)nc4C(F)(F)F)C3=O)ccnc2c(OC)n1 + Cc1cccc(N(C)C(=O)C2C(O)CCN2c2nc(C)cc(C(F)(F)F)c2C#N)c1
> 10 µM: IC50 (second compound 0.0316 µM) | IC50 (second compound 0.1 µM) | IC50 (second compound 0.316 µM) | IC50 (second compound 1 µM) | IC50 (second compound 3.16 µM) | IC50 (second compound 10 µM)
inactive: viability, T/C [1] 88.4% | viability, T/C [2] 94.8% | viability, T/C [3] 88.7% | viability, T/C [4] 86.2% | viability, T/C [25] 92.8% | viability, T/C [26] 79.2% | viability, T/C [5] 102% | viability, T/C [6] 99.8% | viability, T/C [7] 80.2% | viability, T/C [8] 89% | viability, T/C [27] 95.4% | viability, T/C [28] 77.2% | viability, T/C [9] 105% | viability, T/C [10] 96.1% | viability, T/C [11] 88.5% | viability, T/C [12] 88.7% | viability, T/C [29] 89.8% | viability, T/C [30] 88.7% | viability, T/C [13] 92.3% | viability, T/C [14] 91.5% | viability, T/C [15] 88.1% | viability, T/C [16] 88.2% | viability, T/C [31] 91.2% | viability, T/C [32] 86.2% | viability, T/C [17] 102% | viability, T/C [18] 98.3% | viability, T/C [19] 82.3% | viability, T/C [20] 101% | viability, T/C [33] 92.2% | viability, T/C [34] 85.4% | viability, T/C [21] 100% | viability, T/C [22] 100% | viability, T/C [23] 99.6% | viability, T/C [24] 99.8% | viability, T/C [35] 82.5% | viability, T/C [36] 77.8%
